{
  "source": "ChEMBL document CHEMBL4725268",
  "about": "“Anticonvulsant and analgesic in neuropathic pain activity in a group of new aminoalkanol derivatives” (Bioorg Med Chem Lett, 2020)",
  "key": {"[1]": {"experiment": "Antioxidant activity assessed as DPPH radical scavenging activity at 125 to 1000 uM by microplate method", "assay_type": "functional", "conditions": "dose microM 125-1000"}, "[2]": {"system": "Mus musculus", "experiment": "Anticonvulsant activity in ip dosed mouse assessed as protection against current-induced seizure by maximal electroshock seizure test", "assay_type": "functional"}, "[3]": {"experiment": "Toxicity in mouse assessed as lethality at 50 mg/kg, ip", "assay_type": "organism-based", "conditions": "in vivo"}, "[4]": {"experiment": "Toxicity in ip dosed mouse assessed as motor impairment by rotarod test", "assay_type": "organism-based", "conditions": "in vivo"}, "[5]": {"experiment": "Protection index, ratio of TD50 for toxicity in ip dosed mouse to ED50 for anticonvulsant activity in ip dosed mouse", "assay_type": "organism-based", "conditions": "in vivo, read-out: PI"}, "[6]": {"system": "Mus musculus", "experiment": "Antiallodynic activity in mouse model of OXA-induced peripheral neuropathy assessed as mean latency time to nocifensive response at 15 mg/kg, ip administered after 3 hrs of OXA stimulation and measured after 1 hr by cold plate method (reference value: 59.76 +/- 0.16 sec)", "assay_type": "functional"}, "[7]": {"system": "Mus musculus", "experiment": "Antiallodynic activity in mouse model of OXA-induced peripheral neuropathy assessed as mean paw withdrawal threshold at 15 mg/kg, ip administered after 3 hrs of OXA stimulation and measured after 1 hr by Von-frey method (reference value: 3.144 +/- 0.169 g)", "assay_type": "functional"}, "[8]": {"system": "Mus musculus", "experiment": "Antiallodynic activity in mouse model of OXA-induced peripheral neuropathy assessed as mean latency time to nocifensive response at 15 mg/kg, ip administered after 7 days of OXA stimulation and measured after 1 hr by cold plate method (reference value: 57.64 +/- 1.267 sec)", "assay_type": "functional"}, "[9]": {"system": "Mus musculus", "experiment": "Antiallodynic activity in mouse model of OXA-induced peripheral neuropathy assessed as mean paw withdrawal threshold at 15 mg/kg, ip administered after 7 days of OXA stimulation and measured after 1 hr by Von-frey method (reference value: 3.192 +/- 0.181 g)", "assay_type": "functional"}, "[10]": {"target": "T1, 5-hydroxytryptamine receptor 1A (Homo sapiens, UniProt P08908)", "T1 sequence (P08908 whole entry)": "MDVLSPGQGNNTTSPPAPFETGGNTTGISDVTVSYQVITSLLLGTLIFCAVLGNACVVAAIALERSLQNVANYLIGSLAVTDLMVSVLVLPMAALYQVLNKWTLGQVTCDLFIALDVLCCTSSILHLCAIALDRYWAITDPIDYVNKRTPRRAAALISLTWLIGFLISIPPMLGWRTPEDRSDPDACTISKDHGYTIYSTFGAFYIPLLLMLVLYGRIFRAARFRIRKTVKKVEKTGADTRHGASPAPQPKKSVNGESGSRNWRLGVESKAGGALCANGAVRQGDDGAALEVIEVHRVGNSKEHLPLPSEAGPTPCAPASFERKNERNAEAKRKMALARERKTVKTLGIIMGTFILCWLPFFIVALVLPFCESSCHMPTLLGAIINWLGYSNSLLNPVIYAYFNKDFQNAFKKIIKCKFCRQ", "experiment": "Binding affinity to 5-HT1A (unknown origin)"}, "[11]": {"experiment": "Drug metabolism in mouse microsome assessed as formation of monohydroxylated metabolite", "assay_type": "ADME", "conditions": "microsomes"}, "[12]": {"experiment": "Genotoxicity in Salmonella typhimurium TA100 assessed as number of revertant at 10 ug by AMES test (reference value: 64.3 to 130.7)", "assay_type": "toxicity, Salmonella enterica subsp. enterica serovar Typhimurium", "conditions": "in vivo; dose 10 µg"}, "[13]": {"experiment": "Genotoxicity in Salmonella typhimurium TA100 assessed as number of revertant at 75 ug by AMES test (reference value: 64.3 to 130.7)", "assay_type": "toxicity, Salmonella enterica subsp. enterica serovar Typhimurium", "conditions": "in vivo; dose 75 µg"}, "[14]": {"experiment": "Genotoxicity in Salmonella typhimurium TA100 assessed as number of revertant at 200 ug by AMES test (reference value: 64.3 to 130.7)", "assay_type": "toxicity, Salmonella enterica subsp. enterica serovar Typhimurium", "conditions": "in vivo; dose 200 µg"}, "[15]": {"experiment": "Genotoxicity in Salmonella typhimurium TA100 assessed as number of revertant at 0.1 ug by AMES test (reference value: 64.3 to 130.7)", "assay_type": "toxicity, Salmonella enterica subsp. enterica serovar Typhimurium", "conditions": "in vivo; dose 0.1 µg"}, "[16]": {"experiment": "Genotoxicity in Salmonella typhimurium TA100 assessed as number of revertant at 1 ug by AMES test (reference value: 64.3 to 130.7)", "assay_type": "toxicity, Salmonella enterica subsp. enterica serovar Typhimurium", "conditions": "in vivo; dose 1 µg"}, "[17]": {"experiment": "Genotoxicity in Salmonella typhimurium TA100 assessed as mutagenic index at 10 ug by AMES test", "assay_type": "toxicity, Salmonella enterica subsp. enterica serovar Typhimurium", "conditions": "in vivo; dose 10 µg"}, "[18]": {"experiment": "Genotoxicity in Salmonella typhimurium TA100 assessed as mutagenic index at 75 ug by AMES test", "assay_type": "toxicity, Salmonella enterica subsp. enterica serovar Typhimurium", "conditions": "in vivo; dose 75 µg"}, "[19]": {"experiment": "Genotoxicity in Salmonella typhimurium TA100 assessed as mutagenic index at 200 ug by AMES test", "assay_type": "toxicity, Salmonella enterica subsp. enterica serovar Typhimurium", "conditions": "in vivo; dose 200 µg"}, "[20]": {"experiment": "Genotoxicity in Salmonella typhimurium TA100 assessed as mutagenic index at 0.1 ug by AMES test", "assay_type": "toxicity, Salmonella enterica subsp. enterica serovar Typhimurium", "conditions": "in vivo; dose 0.1 µg"}, "[21]": {"experiment": "Genotoxicity in Salmonella typhimurium TA100 assessed as mutagenic index at 1 ug by AMES test", "assay_type": "toxicity, Salmonella enterica subsp. enterica serovar Typhimurium", "conditions": "in vivo; dose 1 µg"}, "[22]": {"experiment": "Genotoxicity in Salmonella typhimurium TA98 assessed as number of revertant at 10 ug by AMES test (reference value: 8 to 8.3)", "assay_type": "toxicity, Salmonella enterica subsp. enterica serovar Typhimurium", "conditions": "in vivo; dose 10 µg"}, "[23]": {"experiment": "Genotoxicity in Salmonella typhimurium TA98 assessed as number of revertant at 75 ug by AMES test (reference value: 8 to 8.3)", "assay_type": "toxicity, Salmonella enterica subsp. enterica serovar Typhimurium", "conditions": "in vivo; dose 75 µg"}, "[24]": {"experiment": "Genotoxicity in Salmonella typhimurium TA98 assessed as number of revertant at 200 ug by AMES test (reference value: 8 to 8.3)", "assay_type": "toxicity, Salmonella enterica subsp. enterica serovar Typhimurium", "conditions": "in vivo; dose 200 µg"}, "[25]": {"experiment": "Genotoxicity in Salmonella typhimurium TA98 assessed as number of revertant at 500 ug by AMES test (reference value: 8 to 8.3)", "assay_type": "toxicity, Salmonella enterica subsp. enterica serovar Typhimurium", "conditions": "in vivo; dose 500 µg"}, "[26]": {"experiment": "Genotoxicity in Salmonella typhimurium TA98 assessed as number of revertant at 750 ug by AMES test (reference value: 8 to 8.3)", "assay_type": "toxicity, Salmonella enterica subsp. enterica serovar Typhimurium", "conditions": "in vivo; dose 750 µg"}, "[27]": {"experiment": "Genotoxicity in Salmonella typhimurium TA98 assessed as mutagenic index at 10 ug by AMES test", "assay_type": "toxicity, Salmonella enterica subsp. enterica serovar Typhimurium", "conditions": "in vivo; dose 10 µg"}, "[28]": {"experiment": "Genotoxicity in Salmonella typhimurium TA98 assessed as mutagenic index at 75 ug by AMES test", "assay_type": "toxicity, Salmonella enterica subsp. enterica serovar Typhimurium", "conditions": "in vivo; dose 75 µg"}, "[29]": {"experiment": "Genotoxicity in Salmonella typhimurium TA98 assessed as mutagenic index at 200 ug by AMES test", "assay_type": "toxicity, Salmonella enterica subsp. enterica serovar Typhimurium", "conditions": "in vivo; dose 200 µg"}, "[30]": {"experiment": "Genotoxicity in Salmonella typhimurium TA98 assessed as mutagenic index at 500 ug by AMES test", "assay_type": "toxicity, Salmonella enterica subsp. enterica serovar Typhimurium", "conditions": "in vivo; dose 500 µg"}, "[31]": {"experiment": "Genotoxicity in Salmonella typhimurium TA98 assessed as mutagenic index at 750 ug by AMES test", "assay_type": "toxicity, Salmonella enterica subsp. enterica serovar Typhimurium", "conditions": "in vivo; dose 750 µg"}, "[32]": {"system": "Astrocyte", "experiment": "Cytotoxicity against human Astrocyte assessed as reduction in cell viability at 50 uM incubated for 24 hrs by MTT assay", "assay_type": "cell-based"}, "[33]": {"system": "Astrocyte", "experiment": "Cytotoxicity against mouse Astrocyte assessed as reduction in cell viability at 100 uM incubated for 24 hrs by LDH assay", "assay_type": "cell-based"}, "[34]": {"system": "Astrocyte", "experiment": "Cytotoxicity against mouse Astrocyte assessed as reduction in cell viability at 100 uM incubated for 48 hrs by trypan blue assay", "assay_type": "cell-based"}, "[35]": {"system": "Astrocyte", "experiment": "Cytotoxicity against mouse Astrocyte assessed as reduction in cell viability at > 25 uM measured upto 48 hrs by crystal violet staining colorimetric assay", "assay_type": "cell-based"}, "[36]": {"experiment": "in vitro", "conditions": "mouse, microsomes", "description": "Metabolic stability in mouse microsome assessed as half life"}, "[37]": {"experiment": "in vitro", "conditions": "mouse, microsomes", "remark": "listed apart in the source", "description": "Metabolic stability in mouse microsome assessed as intrinsic clearance"}},
  "note": "The source made the active and inactive calls.",
  "data": [
    {"smiles": "Cc1cc(C)c(C)c(OCCN[C@@H]2CCCC[C@H]2O)c1", "note": "(racemic)", "values": [
      {"measurement": "Activity", "setting": "[1]", "result": "inactive"},
      {"measurement": "ED50", "setting": "[2]", "result": 15.7, "unit": "mg/kg"},
      {"measurement": "Activity", "setting": "[3]", "result": "Non-Toxic"},
      {"measurement": "TD50", "setting": "[4]", "result": 78.3, "unit": "mg/kg"},
      {"measurement": "selectivity ratio", "setting": "[5]", "result": 5},
      {"measurement": "Time", "setting": "[6]", "result": 22.333, "unit": "s"},
      {"measurement": "Activity", "setting": "[7]", "result": 2.222, "unit": "g"},
      {"measurement": "Time", "setting": "[8]", "result": 9.278, "unit": "s"},
      {"measurement": "Activity", "setting": "[9]", "result": 2.122, "unit": "g"},
      {"measurement": "Ki", "setting": "[10]", "result": 1.01, "unit": "µM"},
      {"measurement": "Drug metabolism", "setting": "[11]", "result": "Metabolite_Detected"},
      {"measurement": "Activity", "setting": "[12]", "result": 185.5},
      {"measurement": "Activity", "setting": "[13]", "result": 105},
      {"measurement": "Activity", "setting": "[14]", "result": 49},
      {"measurement": "Activity", "setting": "[15]", "result": 147},
      {"measurement": "Activity", "setting": "[16]", "result": 138.3},
      {"measurement": "Activity_index", "setting": "[17]", "result": 2.6},
      {"measurement": "Activity_index", "setting": "[18]", "result": 1.4},
      {"measurement": "Activity_index", "setting": "[19]", "result": 0.7},
      {"measurement": "Activity_index", "setting": "[20]", "result": 1.1},
      {"measurement": "Activity_index", "setting": "[21]", "result": 1.1},
      {"measurement": "Activity", "setting": "[22]", "result": 7.3},
      {"measurement": "Activity", "setting": "[23]", "result": 6.3},
      {"measurement": "Activity", "setting": "[24]", "result": 6.7},
      {"measurement": "Activity", "setting": "[25]", "result": 8.7},
      {"measurement": "Activity", "setting": "[26]", "result": 9.3},
      {"measurement": "Activity_index", "setting": "[27]", "result": 0.9},
      {"measurement": "Activity_index", "setting": "[28]", "result": 0.8},
      {"measurement": "Activity_index", "setting": "[29]", "result": 0.8},
      {"measurement": "Activity_index", "setting": "[30]", "result": 1.1},
      {"measurement": "Activity_index", "setting": "[31]", "result": 1.2},
      {"measurement": "Activity", "setting": "[32]", "result": "Toxic"},
      {"measurement": "Activity", "setting": "[33]", "result": "Toxic"},
      {"measurement": "Activity", "setting": "[34]", "result": "Toxic"},
      {"measurement": "Activity", "setting": "[35]", "result": "Toxic"},
      {"measurement": "half-life", "setting": "[36]", "result": 27.2, "unit": "min"},
      {"measurement": "microsomal CLint", "setting": "[37]", "result": 128, "unit": "µL/min/mg"}
    ]}
  ]
}
